System: 633275-114-R-J1-PDC complex spheroids, viability
Test: Anticancer human tumor 633275-114-R-J1-PDC patient-derived endometrial adenocarcinoma cell line growth inhibition [GQUAD]
Conditions: for IC50: curve of first compound; for viability, T/C: stronger effect = lower value
Outline: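 Multi-cell-type spheroids of tumor cells with HUVEC and mesenchymal stem cells, treated with drug combinations. Concentrations descend in half-log steps from near clinical Cmax, or from 10 microM where Cmax is unknown; viability read-out.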

[1] = second compound 0.0316 µM, first compound 0.0316 µM
[2] = second compound 0.0316 µM, first compound 0.316 µM
[3] = second compound 0.1 µM, first compound 0.0316 µM
[4] = second compound 0.1 µM, first compound 0.316 µM
[5] = second compound 0.316 µM, first compound 0.0316 µM
[6] = second compound 0.316 µM, first compound 0.316 µM
[7] = second compound 1 µM, first compound 0.0316 µM
[8] = second compound 1 µM, first compound 0.316 µM
[9] = second compound 3.16 µM, first compound 0.0316 µM
[10] = second compound 3.16 µM, first compound 0.316 µM
[11] = second compound 10 µM, first compound 0.0316 µM
[12] = second compound 10 µM, first compound 0.316 µM
[13] = second compound 0.0316 µM, first compound 0.000999 µM
[14] = second compound 0.0316 µM, first compound 0.00316 µM
[15] = second compound 0.0316 µM, first compound 0.00999 µM
[16] = second compound 0.0316 µM, first compound 0.0999 µM
[17] = second compound 0.1 µM, first compound 0.000999 µM
[18] = second compound 0.1 µM, first compound 0.00316 µM
[19] = second compound 0.1 µM, first compound 0.00999 µM
[20] = second compound 0.1 µM, first compound 0.0999 µM
[21] = second compound 0.316 µM, first compound 0.000999 µM
[22] = second compound 0.316 µM, first compound 0.00316 µM
[23] = second compound 0.316 µM, first compound 0.00999 µM
[24] = second compound 0.316 µM, first compound 0.0999 µM
[25] = second compound 1 µM, first compound 0.000999 µM
[26] = second compound 1 µM, first compound 0.00316 µM
[27] = second compound 1 µM, first compound 0.00999 µM
[28] = second compound 1 µM, first compound 0.0999 µM
[29] = second compound 3.16 µM, first compound 0.000999 µM
[30] = second compound 3.16 µM, first compound 0.00316 µM
[31] = second compound 3.16 µM, first compound 0.00999 µM
[32] = second compound 3.16 µM, first compound 0.0999 µM
[33] = second compound 10 µM, first compound 0.000999 µM
[34] = second compound 10 µM, first compound 0.00316 µM
[35] = second compound 10 µM, first compound 0.00999 µM
[36] = second compound 10 µM, first compound 0.0999 µM
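Further: spheroids exposed to the agents for seven days.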
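Wherever viability, T/C is given: percent of DMSO vehicle control viability which is 100%.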

SMILES: C=CC(=O)N1CCN(c2nc(=O)n(-c3c(C)ccnc3C(C)C)c3nc(-c4c(O)cccc4F)c(F)cc23)C(C)C1 (stereo unspecified) + CN(C)c1ccc(Nc2c3ccc(NC(=O)CCN4CCCC4)cc3nc3cc(NC(=O)CCN4CCCC4)ccc23)cc1
- IC50 (second compound 0.0316 µM): > 10000 nM
- IC50 (second compound 0.1 µM): > 10000 nM
- IC50 (second compound 0.316 µM): > 10000 nM
- IC50 (second compound 1 µM): > 10000 nM
- IC50 (second compound 3.16 µM): > 10000 nM
- IC50 (second compound 10 µM): < 31.6 nM
- viability, T/C [1]: 109%
- viability, T/C (second compound 0.0316 µM, first compound 0.1 µM): 88%
- viability, T/C [2]: 94.9%
- viability, T/C (second compound 0.0316 µM, first compound 1 µM): 92.5%
- viability, T/C (second compound 0.0316 µM, first compound 3.16 µM): 106%
- viability, T/C (second compound 0.0316 µM, first compound 10 µM): 81.8%
- viability, T/C [3]: 98.1%
- viability, T/C (second compound 0.1 µM, first compound 0.1 µM): 92%
- viability, T/C [4]: 97.7%
- viability, T/C (second compound 0.1 µM, first compound 1 µM): 92.6%
- viability, T/C (second compound 0.1 µM, first compound 3.16 µM): 97.2%
- viability, T/C (second compound 0.1 µM, first compound 10 µM): 76%
- viability, T/C [5]: 92.8%
- viability, T/C (second compound 0.316 µM, first compound 0.1 µM): 95.4%
- viability, T/C [6]: 110%
- viability, T/C (second compound 0.316 µM, first compound 1 µM): 110%
- viability, T/C (second compound 0.316 µM, first compound 3.16 µM): 98.9%
- viability, T/C (second compound 0.316 µM, first compound 10 µM): 76%
- viability, T/C [7]: 95.5%
- viability, T/C (second compound 1 µM, first compound 0.1 µM): 88.6%
- viability, T/C [8]: 100%
- viability, T/C (second compound 1 µM, first compound 1 µM): 97.5%
- viability, T/C (second compound 1 µM, first compound 3.16 µM): 104%
- viability, T/C (second compound 1 µM, first compound 10 µM): 65.2%
- viability, T/C [9]: 84.2%
- viability, T/C (second compound 3.16 µM, first compound 0.1 µM): 85.1%
- viability, T/C [10]: 92.1%
- viability, T/C (second compound 3.16 µM, first compound 1 µM): 84.5%
- viability, T/C (second compound 3.16 µM, first compound 3.16 µM): 78.1%
- viability, T/C (second compound 3.16 µM, first compound 10 µM): 51.3%
- viability, T/C [11]: 34.3%
- viability, T/C (second compound 10 µM, first compound 0.1 µM): 34.3%
- viability, T/C [12]: 35.2%
- viability, T/C (second compound 10 µM, first compound 1 µM): 41%
- viability, T/C (second compound 10 µM, first compound 3.16 µM): 37.3%
- viability, T/C (second compound 10 µM, first compound 10 µM): 15.4%

SMILES: CC[C@@]1(O)C(=O)OCc2c1cc1n(c2=O)Cc2cc3c(CN(C)C)c(O)ccc3nc2-1 + CN(C)c1ccc(Nc2c3ccc(NC(=O)CCN4CCCC4)cc3nc3cc(NC(=O)CCN4CCCC4)ccc23)cc1
- IC50 (second compound 0.0316 µM): 71.5 nM
- IC50 (second compound 0.1 µM): 73 nM
- IC50 (second compound 0.316 µM): 81.2 nM
- IC50 (second compound 1 µM): 58.2 nM
- IC50 (second compound 3.16 µM): 48.3 nM
- IC50 (second compound 10 µM): < 0.999 nM
- viability, T/C [13]: 96.1%
- viability, T/C [14]: 105%
- viability, T/C [15]: 98.3%
- viability, T/C [1]: 75.2%
- viability, T/C [16]: 39.7%
- viability, T/C [2]: 35.9%
- viability, T/C [17]: 93.4%
- viability, T/C [18]: 101%
- viability, T/C [19]: 99%
- viability, T/C [3]: 74.1%
- viability, T/C [20]: 42%
- viability, T/C [4]: 36%
- viability, T/C [21]: 101%
- viability, T/C [22]: 104%
- viability, T/C [23]: 85.5%
- viability, T/C [5]: 72.9%
- viability, T/C [24]: 42.6%
- viability, T/C [6]: 36.3%
- viability, T/C [25]: 98%
- viability, T/C [26]: 88.6%
- viability, T/C [27]: 91.2%
- viability, T/C [7]: 64.8%
- viability, T/C [28]: 36.7%
- viability, T/C [8]: 35%
- viability, T/C [29]: 82.3%
- viability, T/C [30]: 82%
- viability, T/C [31]: 80.7%
- viability, T/C [9]: 54%
- viability, T/C [32]: 40.6%
- viability, T/C [10]: 27%
- viability, T/C [33]: 35.2%
- viability, T/C [34]: 41.3%
- viability, T/C [35]: 28.8%
- viability, T/C [11]: 26.5%
- viability, T/C [36]: 15.3%
- viability, T/C [12]: 13.7%

SMILES: CCc1c2c(nc3ccc(O)cc13)-c1cc3c(c(=O)n1C2)COC(=O)[C@]3(O)CC + CN(C)c1ccc(Nc2c3ccc(NC(=O)CCN4CCCC4)cc3nc3cc(NC(=O)CCN4CCCC4)ccc23)cc1
- IC50 (second compound 0.0316 µM): 2.92 nM
- IC50 (second compound 0.1 µM): 2.72 nM
- IC50 (second compound 0.316 µM): 3.31 nM
- IC50 (second compound 1 µM): 2.76 nM
- IC50 (second compound 3.16 µM): 2.01 nM
- IC50 (second compound 10 µM): < 0.999 nM
- viability, T/C [13]: 82.3%
- viability, T/C [14]: 46.1%
- viability, T/C [15]: 34.6%
- viability, T/C [1]: 35.3%
- viability, T/C [16]: 26.1%
- viability, T/C [2]: 25.2%
- viability, T/C [17]: 77.6%
- viability, T/C [18]: 44.2%
- viability, T/C [19]: 36.1%
- viability, T/C [3]: 32%
- viability, T/C [20]: 30.2%
- viability, T/C [4]: 25.6%
- viability, T/C [21]: 73%
- viability, T/C [22]: 48.2%
- viability, T/C [23]: 38.1%
- viability, T/C [5]: 35.3%
- viability, T/C [24]: 29.4%
- viability, T/C [6]: 23.9%
- viability, T/C [25]: 68.4%
- viability, T/C [26]: 43.1%
- viability, T/C [27]: 40.3%
- viability, T/C [7]: 29.3%
- viability, T/C [28]: 23.9%
- viability, T/C [8]: 21.6%
- viability, T/C [29]: 60.8%
- viability, T/C [30]: 41.8%
- viability, T/C [31]: 34.9%
- viability, T/C [9]: 28.1%
- viability, T/C [32]: 23.5%
- viability, T/C [10]: 22.6%
- viability, T/C [33]: 31%
- viability, T/C [34]: 16%
- viability, T/C [35]: 15.7%
- viability, T/C [11]: 13.9%
- viability, T/C [36]: 15.6%
- viability, T/C [12]: 11.5%
